This passage reports inhibition, EC50 and IC50 results from patent publication EP4592286A1, “MACROCYCLIC NITROGEN-CONTAINING CROWN ETHER COMPOUND AND USE THEREOF AS PROTEIN KINASE INHIBITOR” (Artivila Biopharma, priority 2022, dated 2024).

Usually inhibition stands for the share of the control response that was lost under treatment. As a reminder, the EC50 is the concentration giving half of the maximal effect. A word on the IC50: it is the concentration needed to halve the response being measured.

For one assay, the target named is TYK2 (Homo sapiens, UniProt P29597). In words: experiment of inhibiting kinase activity, TYK2. It is filed as biochemical. Particulars: read-out: inhibition rate TYK2; for inhibition at 0.01 µM: at 10 nM; for inhibition at 0.1 µM: at 100 nM. On the procedure:
(§1) The inhibition rates of tested compounds on JAK1, JAK2, JAK3, TYK2, CDK7, CDK9, EGFR (T790M) and LRRK2 kinases were measured. The test concentrations of the compounds were 10 nM and 100 nM, and the detection was performed by replicate wells. Alternatively, compounds were 3-fold serial diluted from 10 µM for 10 concentrations in replicate wells.

In the next assay the target is JAK2 (Homo sapiens, UniProt O60674). Description: experiment of inhibiting kinase activity (Caliper mobility shift assay), JAK2. The class given is biochemical. The note with it: for inhibition at 0.01 µM: at 10 nM; for inhibition at 0.01 µM / inhibition at 0.1 µM: read-out: inhibition rate JAK2; for inhibition at 0.1 µM: at 100 nM; for IC50: kinase activity assay, Table 3. In a few lines:
(§2)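 Read-out was Caliper mobility shift of substrate conversion, normalized to no-inhibitor and buffer-only wells, with IC50 from a variable-slope log(inhibitor) curve. Enzyme was exposed to compound (10-point 3-fold series from 10 µM, or single 10/100 nM) 10 min at room temperature before ATP/substrate addition.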

Assay [1] addresses T1, JAK1 (Homo sapiens, UniProt P23458). Description: experiment of inhibiting kinase activity (Caliper mobility shift assay), JAK1. Particulars: for inhibition at 0.01 µM: at 10 nM; for inhibition at 0.01 µM / inhibition at 0.1 µM: read-out: inhibition rate JAK1; for inhibition at 0.1 µM: at 100 nM; for IC50: kinase activity assay, Table 3. It is filed as biochemical. An outline of the steps:
as §2

Assay [2] addresses T1, JAK1. In words: JAKs cell activity test: detection of pSTAT6 in THP1 cells induced by JAK1_IL-4. It is filed as cell-based. Particulars: pSTAT6, IL-4-induced THP1 cells. Here is the method: Detection of pSTAT6 in THP1 cells induced by JAK1_IL-4
THP1 cells were collected by centrifugation, resuspended with 1×HBSS, counted and diluted to a certain cell density. They were inoculated in a 384-well plate and cultured in a saturated humidity incubator with 37 °C and 5% CO2. The compound (DMSO final volume of 0.3%) was added to THP1 cells (10 doses in duplicates) and cultured in a saturated humidity incubator with 37 °C and 5% CO2. hIL-4 was added to stimulate cells and cultured in a saturated humidity incubator with 37 °C and 5% CO2. The lysis solution was added and incubated at room temperature. According to the instructions of AlphaLISA SureFire Ultra p-STAT6 detection kit, the lysis solution was transferred to pSTAT6 detection system, and the ALPHA signal was read by PE Envision microplate reader. The inhibition rate Inh%=((DMSO-sample)/(DMSO-background))×100 was calculated. IC50 was obtained by fitting with GraphPad Prism non-linear regression equation, and y=Bottom+(Top-Bottom)/(1+10^((LogIC50-x)×hillslope)), where x was the concentration of the compound and y was the inhibition rate.

A further assay addresses LRRK2 (Homo sapiens, UniProt Q5S007). Description: experiment of inhibiting kinase activity, LRRK2. The class given is biochemical. The note with it: for inhibition at 0.01 µM: at 10 nM; for inhibition at 0.01 µM / inhibition at 0.1 µM: read-out: inhibition rate LRRK2; for inhibition at 0.1 µM: at 100 nM; for IC50: kinase activity assay, Table 3. Here is the method: as §1

The next assay has as its target T2, JAK3 (Homo sapiens, UniProt P52333).
T2 sequence (P52333 1-1124): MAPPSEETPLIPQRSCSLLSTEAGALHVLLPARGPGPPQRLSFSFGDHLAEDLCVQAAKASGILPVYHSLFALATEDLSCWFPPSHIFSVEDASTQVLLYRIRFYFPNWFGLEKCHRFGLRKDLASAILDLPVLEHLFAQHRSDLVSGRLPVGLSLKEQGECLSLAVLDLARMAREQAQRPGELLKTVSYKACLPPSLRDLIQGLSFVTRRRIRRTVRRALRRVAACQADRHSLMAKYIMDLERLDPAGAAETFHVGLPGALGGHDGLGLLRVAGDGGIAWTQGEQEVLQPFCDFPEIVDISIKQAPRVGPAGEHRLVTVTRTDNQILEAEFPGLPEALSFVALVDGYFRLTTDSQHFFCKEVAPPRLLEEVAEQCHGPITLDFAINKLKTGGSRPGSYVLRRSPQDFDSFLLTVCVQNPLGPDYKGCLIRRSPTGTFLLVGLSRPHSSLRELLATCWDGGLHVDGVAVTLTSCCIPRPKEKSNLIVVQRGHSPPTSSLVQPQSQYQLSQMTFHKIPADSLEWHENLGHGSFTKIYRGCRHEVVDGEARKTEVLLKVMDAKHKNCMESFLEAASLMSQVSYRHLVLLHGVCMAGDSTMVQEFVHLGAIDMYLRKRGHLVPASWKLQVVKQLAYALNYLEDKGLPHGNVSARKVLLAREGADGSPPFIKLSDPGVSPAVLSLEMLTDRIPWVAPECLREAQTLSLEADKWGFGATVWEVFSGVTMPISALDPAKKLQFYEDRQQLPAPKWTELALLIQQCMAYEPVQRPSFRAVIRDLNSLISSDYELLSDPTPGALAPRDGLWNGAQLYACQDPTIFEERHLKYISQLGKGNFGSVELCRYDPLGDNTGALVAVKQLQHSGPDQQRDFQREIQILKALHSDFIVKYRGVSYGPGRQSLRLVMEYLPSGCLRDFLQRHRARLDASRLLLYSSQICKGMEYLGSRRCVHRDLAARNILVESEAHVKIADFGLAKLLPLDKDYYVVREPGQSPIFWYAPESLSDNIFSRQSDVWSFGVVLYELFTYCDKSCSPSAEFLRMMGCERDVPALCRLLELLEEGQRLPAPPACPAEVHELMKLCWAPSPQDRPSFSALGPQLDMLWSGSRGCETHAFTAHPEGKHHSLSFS
Description: experiment of inhibiting kinase activity (Caliper mobility shift assay), JAK3. The class given is biochemical. The note with it: for inhibition at 0.01 µM: at 10 nM; for inhibition at 0.01 µM / inhibition at 0.1 µM: read-out: inhibition rate JAK3; for inhibition at 0.1 µM: at 100 nM. In a few lines:
as §2

LRRK2, sequence (Q5S007 whole entry): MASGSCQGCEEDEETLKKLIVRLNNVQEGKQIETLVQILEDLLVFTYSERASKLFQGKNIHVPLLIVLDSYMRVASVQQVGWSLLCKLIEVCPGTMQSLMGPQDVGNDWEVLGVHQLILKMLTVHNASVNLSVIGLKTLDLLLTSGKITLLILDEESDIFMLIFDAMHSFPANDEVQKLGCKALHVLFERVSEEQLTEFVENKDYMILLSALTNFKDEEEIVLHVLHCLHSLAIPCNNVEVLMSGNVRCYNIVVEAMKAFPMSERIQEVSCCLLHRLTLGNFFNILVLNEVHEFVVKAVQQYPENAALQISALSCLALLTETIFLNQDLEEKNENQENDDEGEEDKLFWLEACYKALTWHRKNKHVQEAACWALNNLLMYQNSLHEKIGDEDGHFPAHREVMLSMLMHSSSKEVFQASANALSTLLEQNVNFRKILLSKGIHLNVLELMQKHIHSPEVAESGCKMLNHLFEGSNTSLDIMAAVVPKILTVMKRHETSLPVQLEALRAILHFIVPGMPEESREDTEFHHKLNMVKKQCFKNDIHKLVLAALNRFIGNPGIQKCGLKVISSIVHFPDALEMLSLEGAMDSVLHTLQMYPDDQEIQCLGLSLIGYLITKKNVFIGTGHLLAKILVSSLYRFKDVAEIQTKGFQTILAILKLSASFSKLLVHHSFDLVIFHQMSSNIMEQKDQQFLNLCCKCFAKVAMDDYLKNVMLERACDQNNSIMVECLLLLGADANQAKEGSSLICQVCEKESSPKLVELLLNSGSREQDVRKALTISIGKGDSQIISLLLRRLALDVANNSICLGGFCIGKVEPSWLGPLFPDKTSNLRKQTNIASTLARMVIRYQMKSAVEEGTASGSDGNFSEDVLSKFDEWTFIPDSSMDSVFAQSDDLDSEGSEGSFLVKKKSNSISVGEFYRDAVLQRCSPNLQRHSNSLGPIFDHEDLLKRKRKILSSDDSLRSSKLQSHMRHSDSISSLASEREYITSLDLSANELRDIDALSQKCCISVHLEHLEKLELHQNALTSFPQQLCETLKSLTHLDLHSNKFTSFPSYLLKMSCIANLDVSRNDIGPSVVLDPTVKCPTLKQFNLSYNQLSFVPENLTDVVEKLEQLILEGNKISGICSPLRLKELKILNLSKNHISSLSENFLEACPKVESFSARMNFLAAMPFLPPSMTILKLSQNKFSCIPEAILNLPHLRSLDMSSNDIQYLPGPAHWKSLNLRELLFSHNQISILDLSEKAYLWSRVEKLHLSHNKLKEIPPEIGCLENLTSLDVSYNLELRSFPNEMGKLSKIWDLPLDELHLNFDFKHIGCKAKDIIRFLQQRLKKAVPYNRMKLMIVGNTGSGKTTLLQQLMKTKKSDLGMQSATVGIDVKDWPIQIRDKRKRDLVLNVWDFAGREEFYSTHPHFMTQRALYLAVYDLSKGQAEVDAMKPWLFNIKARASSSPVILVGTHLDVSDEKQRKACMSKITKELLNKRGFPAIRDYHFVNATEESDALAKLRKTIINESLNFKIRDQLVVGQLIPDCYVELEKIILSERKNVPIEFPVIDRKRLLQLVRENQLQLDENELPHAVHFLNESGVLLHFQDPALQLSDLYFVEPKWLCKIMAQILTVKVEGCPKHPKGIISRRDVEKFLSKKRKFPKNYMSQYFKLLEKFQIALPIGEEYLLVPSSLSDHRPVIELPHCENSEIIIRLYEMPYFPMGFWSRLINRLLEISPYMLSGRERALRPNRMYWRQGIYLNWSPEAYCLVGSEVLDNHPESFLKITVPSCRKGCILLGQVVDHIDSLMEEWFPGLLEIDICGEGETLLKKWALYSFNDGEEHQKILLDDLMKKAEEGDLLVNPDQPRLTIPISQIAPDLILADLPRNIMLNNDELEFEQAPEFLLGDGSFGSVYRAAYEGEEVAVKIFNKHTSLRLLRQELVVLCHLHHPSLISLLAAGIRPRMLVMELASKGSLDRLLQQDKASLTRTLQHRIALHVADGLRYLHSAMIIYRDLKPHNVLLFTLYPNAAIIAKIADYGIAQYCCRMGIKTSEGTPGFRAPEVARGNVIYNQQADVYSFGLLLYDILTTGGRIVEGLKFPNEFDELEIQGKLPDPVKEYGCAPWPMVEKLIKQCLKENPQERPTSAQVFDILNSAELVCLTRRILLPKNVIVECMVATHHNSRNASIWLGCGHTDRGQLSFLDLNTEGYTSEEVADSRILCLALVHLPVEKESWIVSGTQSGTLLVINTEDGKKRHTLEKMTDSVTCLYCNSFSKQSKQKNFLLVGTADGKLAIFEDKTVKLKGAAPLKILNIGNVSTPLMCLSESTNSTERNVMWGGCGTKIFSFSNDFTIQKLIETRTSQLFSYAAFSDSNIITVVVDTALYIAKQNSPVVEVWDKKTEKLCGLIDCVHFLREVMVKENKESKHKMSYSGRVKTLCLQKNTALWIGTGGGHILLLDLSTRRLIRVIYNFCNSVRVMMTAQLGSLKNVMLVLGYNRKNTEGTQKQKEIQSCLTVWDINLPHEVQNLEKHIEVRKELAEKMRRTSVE
TYK2, sequence (P29597 whole entry): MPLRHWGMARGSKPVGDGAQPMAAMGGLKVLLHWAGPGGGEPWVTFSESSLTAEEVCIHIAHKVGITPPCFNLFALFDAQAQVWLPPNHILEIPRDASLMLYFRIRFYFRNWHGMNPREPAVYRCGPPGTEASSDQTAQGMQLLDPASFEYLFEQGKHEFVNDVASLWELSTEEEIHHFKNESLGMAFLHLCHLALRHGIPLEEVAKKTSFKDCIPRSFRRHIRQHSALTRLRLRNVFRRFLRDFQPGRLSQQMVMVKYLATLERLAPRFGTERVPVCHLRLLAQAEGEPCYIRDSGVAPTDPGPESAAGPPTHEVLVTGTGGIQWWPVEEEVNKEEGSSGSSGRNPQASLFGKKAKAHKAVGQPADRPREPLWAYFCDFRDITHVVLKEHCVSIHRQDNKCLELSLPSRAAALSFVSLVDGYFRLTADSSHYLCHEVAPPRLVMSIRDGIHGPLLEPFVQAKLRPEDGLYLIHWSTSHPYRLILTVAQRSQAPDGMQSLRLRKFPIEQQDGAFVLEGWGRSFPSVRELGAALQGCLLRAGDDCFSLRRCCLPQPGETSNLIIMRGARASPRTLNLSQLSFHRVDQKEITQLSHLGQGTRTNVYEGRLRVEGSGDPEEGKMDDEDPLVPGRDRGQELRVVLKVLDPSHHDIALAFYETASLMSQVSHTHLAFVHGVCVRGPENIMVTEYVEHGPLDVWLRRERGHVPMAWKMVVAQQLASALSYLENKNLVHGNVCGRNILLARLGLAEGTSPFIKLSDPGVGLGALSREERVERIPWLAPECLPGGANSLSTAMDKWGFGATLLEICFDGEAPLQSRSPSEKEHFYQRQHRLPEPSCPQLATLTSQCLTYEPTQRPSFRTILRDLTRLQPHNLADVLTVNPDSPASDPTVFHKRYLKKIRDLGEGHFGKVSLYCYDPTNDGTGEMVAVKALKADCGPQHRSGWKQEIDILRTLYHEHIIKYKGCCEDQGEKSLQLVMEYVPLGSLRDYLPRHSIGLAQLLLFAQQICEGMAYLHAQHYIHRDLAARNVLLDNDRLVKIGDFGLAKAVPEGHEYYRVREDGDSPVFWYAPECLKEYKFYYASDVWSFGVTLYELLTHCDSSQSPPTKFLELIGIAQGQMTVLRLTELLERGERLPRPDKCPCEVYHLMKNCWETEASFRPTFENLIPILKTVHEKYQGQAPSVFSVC
JAK2, sequence (O60674 whole entry): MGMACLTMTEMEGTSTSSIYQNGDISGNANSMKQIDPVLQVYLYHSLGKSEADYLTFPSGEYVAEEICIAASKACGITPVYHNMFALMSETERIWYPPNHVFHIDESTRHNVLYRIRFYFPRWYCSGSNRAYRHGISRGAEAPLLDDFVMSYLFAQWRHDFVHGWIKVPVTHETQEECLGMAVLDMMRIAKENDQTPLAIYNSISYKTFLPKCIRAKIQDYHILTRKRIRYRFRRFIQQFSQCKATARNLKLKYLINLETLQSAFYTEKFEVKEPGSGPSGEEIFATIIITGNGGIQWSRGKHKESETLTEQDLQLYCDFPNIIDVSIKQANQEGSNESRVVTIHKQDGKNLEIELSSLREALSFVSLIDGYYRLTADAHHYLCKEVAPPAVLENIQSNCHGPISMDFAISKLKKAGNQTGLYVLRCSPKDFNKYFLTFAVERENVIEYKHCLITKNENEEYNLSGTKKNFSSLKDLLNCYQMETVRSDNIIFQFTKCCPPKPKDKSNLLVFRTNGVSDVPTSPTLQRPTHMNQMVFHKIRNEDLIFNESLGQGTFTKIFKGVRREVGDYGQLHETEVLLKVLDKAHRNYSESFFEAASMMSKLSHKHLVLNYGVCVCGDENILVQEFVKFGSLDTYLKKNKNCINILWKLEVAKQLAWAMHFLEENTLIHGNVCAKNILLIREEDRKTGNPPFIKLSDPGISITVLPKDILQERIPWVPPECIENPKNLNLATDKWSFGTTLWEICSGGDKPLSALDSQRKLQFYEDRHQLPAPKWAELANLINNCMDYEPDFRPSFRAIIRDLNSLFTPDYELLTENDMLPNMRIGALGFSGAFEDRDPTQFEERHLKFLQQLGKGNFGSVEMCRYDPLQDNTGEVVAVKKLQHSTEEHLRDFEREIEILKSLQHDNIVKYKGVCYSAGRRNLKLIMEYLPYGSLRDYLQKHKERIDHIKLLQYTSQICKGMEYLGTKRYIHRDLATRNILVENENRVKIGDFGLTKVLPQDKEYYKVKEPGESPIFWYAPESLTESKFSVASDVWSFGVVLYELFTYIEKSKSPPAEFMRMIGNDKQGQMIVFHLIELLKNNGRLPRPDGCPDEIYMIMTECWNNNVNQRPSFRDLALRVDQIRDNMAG

Take `CN1CCOCCOc2cc(Nc3nc(-c4cnn(C(CC#N)C5CCCC5)c4)c4cc[nH]c4n3)ccc2OCC1` (stereo not shown) [Example 26, 3-cyclopentyl-3-(4-(2-((7-methyl-2,3,6,7,8,9-hexahydro-5H-benzo[b][1,4,7]trioxa[10]azacyclododecan-13-yl)amino)-7H-pyrrolo[2,3-d]pytimidin-4-yl)-1H-pyrazol-1-yl)propionitrile]: the inhibition at 0.01 µM on TYK2, at JAK2, at JAK1 [1], at LRRK2 and at JAK3 was above 80% each time. The inhibition at 0.1 µM at TYK2, at JAK2, on JAK1 [1], on LRRK2 and on JAK3 was above 80% each time. The EC50 at JAK1 [2] was below 50 nM.
As to `CN1CCOCCOc2cc(Nc3ncc(F)c(-c4ccc(C(=O)NCC#N)cc4)n3)ccc2OCC1` [Example 16, N-(cyanomethyl)-4-(5-fluoro-2-((7-methyl-2,3,6,7,8,9-hexahydro-5H-benzo[b][1,4,7]trioxa[10]azacyclododecan-13-yl)amino)pyrimidin-4-yl)benzamide], the inhibition at 0.01 µM on TYK2, at JAK2 and on JAK3 was 40 to 79% throughout. Further, the inhibition at 0.1 µM on TYK2 is above 80%; on JAK2, above 80%; at JAK1 [1], 40 to 79%; at LRRK2, 40 to 79%; at JAK3 it was above 80%. In addition, the IC50 on JAK2 is below 50 nM; on JAK1 [1], 50 to 200 nM; against LRRK2, 50 to 200 nM; on JAK3 (kinase activity assay, Table 3), below 50 nM. This compound also yielded an EC50 at JAK1 [2] of 50 to 500 nM.
`CCS(=O)(=O)N1CC(CC#N)(n2cc(-c3nc(Nc4ccc5c(c4)OCCN(C)CCO5)nc4[nH]ccc34)cn2)C1` [Example 28, 2-(1-(ethylsulfonyl)-3-(4-(2-((4-methyl-3,4,5,6-tetrahydro-2H-benzo[b][1,4,7]dioxazolin-9-yl)amino)-7H-pyrrolo[2,3-d]pytimidin-4-yl)-1H-pyrazol-1-yl)azetidin-3-yl) acetonitrile]: the inhibition at 0.01 µM on JAK2 is above 80%; at JAK1 [1] it was above 80%; at LRRK2, 40 to 79%. The inhibition at 0.1 µM at JAK2, at JAK1 [1] and on LRRK2 was above 80% in each case. Also, the IC50 at JAK2, on JAK1 [1] and against LRRK2 was below 50 nM in each case. In addition, the EC50 on JAK1 [2] was below 50 nM.
